Experimental data reported in patent US11203583B2, “Prodrug and profluorescent compounds for selective mitochondrial imaging and therapeutic targeting” (ARIZONA BOARD OF REGENTS ON BEHALF OF ARIZONA STATE …, priority 2016, dated 2021).
“Also recorded” adds a separate entry of the source.

Key:
[1] = system: mitochondrial nitroreductase in live A549 cells; test: Fluorescence microscopy: activation of prodrugs 4a and 4b (AMA release) in live A549 cells; format: cell-based, human; conditions: 25 μM; for release of AMA (appearance of AMA fluorescence, λem ~425 nm) in live A549 cells: 4 hours; for localization of AMA fluorescence relative to mitochondria in A549 cells: MitoTracker Green FM
Experimental: The finding of nitroreductase activity associated with the mitochondria of human cells encouraged us to design a new prodrug based on the mitochondrial poison antimycin A (AMA). It has recently been noted that AMA is toxic only at relatively high concentration,^19 plausibly due to a lack of facile access to the mitochondria. […] Accordingly, 0-p-nitrobenzyl-AMA (4a) was prepared in good yield by alkylation of AMA (FIG. 8a). Also prepared as a control was O-benzyl-AMA (4b). […] Accordingly, it is possible to monitor the release of AMA within the mitochondria after enzymatic reduction of the nitro moiety in 4a.
Fluorescence microscopy images were acquired using a Zeiss Axiovert 200M inverted microscope fitted with an AxioCam MRm camera equipped with a 300 W xenon lamp (Sutter, Novato, Calif., USA), and DAPI (blue channel) and Texas red (red channel) filters (Chroma, Bellows Falls, Vt., USA). A549 cells were grown on glass bottom microwell disks (MatTek Corporation, MA, USA) at a cell density of 10000 cells/well at 37° C. for 24 hours. When the cell confluence reached ˜60-70%, the cells were rinsed three times with phosphate buffered saline (PBS). The cells were then treated with AMA, 4a and 4b at 25 μM concentration for 4 hours. The cells were then stained using 100 nM MitoTracker Green FM (Cell Signaling Technology, Danvers, Mass., USA) for 40 minutes. Thereafter, all images were recorded and counted using a 40× oil objective. To ensure accurate intensity measurements, the exposure time and laser time were kept the same. Data are reported as the mean of three independent experiments.

[2] = system: NADH oxidase (mitochondrial respiratory complexes I, III, and IV); test: NADH oxidase activity assay in bovine heart submitochondrial particles; format: biochemical; conditions: for NADH oxidase inhibitory activity (qualitative comparison): 0.05, 0.1 and 0.5 μM concentrations, FIG. 9a
Experimental: The effect of compounds AMA, 4a and 4b on NADH oxidase activity were evaluated using bovine heart mitochondria. The bovine heart mitochondria and bovine heart submitochondrial particles (SMPs) were prepared as described.^2 The SMPs were diluted to 0.5 mg/mL, and the test compounds were assayed at 25° C. and monitored spectrophotometrically using a Beckman Coulter DU-530 spectrometer (340 nm, c 6.22 mM^−1 cm^−1). NADH oxidase activity was determined in 1 mL of 50 mM Hepes buffer containing 5 mM MgCl2, pH 7.5. The final mitochondrial protein concentration was 30 μg/mL. The initial rates of NADH oxidation were calculated from the linear portion of the traces. Data are reported as the mean of three independent experiments each run in triplicate.

[3] = system: A549 lung cancer cells; test: MTT toxicity assay; format: cell-based, human; conditions: 24 h incubation at 1, 5 and 10 μM, FIG. 9b
Experimental: Exponentially growing A459 cells were harvested and plated in 96-well plates at a concentration of 2×10^4 cells/well. After incubation at 37° C. for 24 h, the cells were treated with compounds AMA, 4a and 4b at final concentrations of 1, 5 and 10 μM for an additional 24 hours. Then 20 μL of MTT (5 mg/mL) was added to each well and the plates were incubated at 37° C. for 4 h. The supernatants were discarded, and 100 μL of DMSO was added to each well. The absorbance was recorded at 490 nm after 15 min. Cell viability was determined by the following formula: cell viability (%)=100−(ODnegative control−ODtreatment)×100%/(ODnegative control−ODbackground). Data are reported as the mean of three independent experiments, each run was carried out quintuplicate.

[4] = Relative fluorescence quantum yield; format: physicochemical
Experimental: All experiments requiring anhydrous conditions were conducted in flame-dried glassware fitted with a rubber septum under a positive pressure of dry argon. Reactions were performed at room temperature unless otherwise indicated. Analytical thin layer chromatography was performed using glass plates pre-coated with silica gel (0.25 mm, 60 Å pore size, 230-400 mesh, Silicycle) impregnated with a fluorescent indicator (254 nm). TLC plates were visualized by exposure to ultraviolet light (UV) or by staining using […]. Flash column chromatography was performed employing silica gel (60 Å pore size, 40-63 μm, standard grade, Silicycle). Fluorescence quantum yields were measured at 25° C. by a relative method using cresyl violet (CV, ΦF=56% in EtOH) as a standard.^1 The following equation was used to determine the relative fluorescence quantum yield: ΦF(x)=(AS/AX)(FX/FS)(nX/nS)^2ΦF(s) where A is the absorbance (in the range of 0.01-0.1 A.U.), F is the area under the emission curve, n is the refractive index of the solvents (at 25° C.) used in measurements, and the subscripts s and x represent standard and unknown, respectively. The following refractive index values were used: 1.362 for EtOH and 1.337 for PBS.

[5] = system: mitochondrial nitroreductase in live A549 cells; test: Fluorescence microscopy: activation of probes 2a, 2b and 2c in live A549 cells; format: cell-based, human
From the text: (§1) The strategy for the release of the fluorescent NIR dye from a non-fluorescent precursor via mitochondrial nitroreductase-mediated reduction involved successive reduction, then elimination (FIG. 5b). The use of ortho, meta and para substituted probes (2a-2c) was crucial because it enabled the investigation of the proposed transformation in greater detail. […] To assess the viability of these probes for the detection of nitroreductase activity, we first validated the probes in a cell free system using purified E. coli nitroreductase. Probes 2a-c (10 μM) were incubated in PBS buffer, pH 7.4, containing 0.5 mM NADH. After a short time, during which no fluorescence was observed, the nitroreductase was added (1 μg mL^−1) and the development of fluorescence was monitored as a function of time (FIGS. 6b, 6c). […] This confirms that the released fluorescent dye is effectively of the QCy7 type by comparison with an authentic standard prepared by chemical synthesis (FIG. 13). With the viability of this probe thus confirmed, we carried out microscopy experiments employing A549 cancer cells. The incubation of 10 μM 2c with the cells for 4 hours was followed by the addition of […] mitotracker green (40-minute incubation). […] The green channel (FIG. 7b) illustrates visualization of the mitochondria by mitotracker green. […] For 2b this is understandable as no elimination process is possible, as confirmed during the in vitro tests. In the case of 2a, we assume that the low kinetics of the reduction (c.f. FIG. 6b) is probably the cause of the absence of a strong signal. […]
Fluorescence images were acquired using a Zeiss Axiovert 200M inverted microscope fitted with an AxioCam MRm camera equipped with a 300 W xenon lamp (Sutter, Novato, Calif.), and Texas red and FITC filters (Chroma, Bellows Falls, Vt.). […] Thereafter, all images were recorded and the target cells counted using a 40× oil objective. […] Pixel intensity was quantified using AxioVision release 4.7 version software, and the mean pixel intensity was generated as gray level. […]

[6] = target: E. coli nitroreductase (Escherichia coli, UniProt P38489); test: Cell-free activation of profluorescent probes by purified E. coli nitroreductase (fluorescence monitoring); format: biochemical
From the text: as §1
A solution of fluorogenic probe was prepared in 1 mL of phosphate buffered saline (PBS) and 150 μL of the resulting solution was transferred into a quartz fluorescence cell. […] After excitation at 572 nm the emission of the released fluorophore was monitored at 703 nm over time with measurements recorded every 1 sec. After 100 sec of incubation, 1.51 μL of a 1 mg mL^−1 solution of E. coli nitroreductase in water was added in the quartz fluorescence cell and the solution was mixed as the monitoring proceeded.

[7] = target: DT diaphorase (Homo sapiens, UniProt P15559); test: Selectivity of probe activation: DT diaphorase versus nitroreductase; format: biochemical; conditions: 10 μM 2c, 1 μg mL^-1 DTD or NTR, 10 mM PBS pH 7.4, 20 min, 25° C.
Experimental: FIGS. 6A-6D. (a) Selective activation of 2c in vitro by E. coli nitroreductase. (b) Time dependent fluorescence emission by 2a, 2b and 2c (excitation at 572 nm; emission at 703 nm) in PBS at 25° C. following treatment with E. coli NTR (1 μg mL^−1) and 0.5 mM NADH. (c) Absorbance spectrum evolution with time during incubation of probe 2c in […] PBS buffer, pH 7.4, with E. coli NTR (1 μg mL^−1) and 0.5 mM NADH. (d) Development of fluorescence from 10 μM 2c following treatment with 1 μg mL^−1 DT diaphorase (DTD) or nitroreductase (NTR) in 10 mM PBS buffer, pH 7.4, for 20 min at 25° C. with or without […] NADH.
The strategy for the release of the fluorescent NIR dye from a non-fluorescent precursor via mitochondrial nitroreductase-mediated reduction involved successive reduction, then elimination (FIG. 5b). The use of ortho, meta and para substituted probes (2a-2c) was crucial because it enabled the investigation of the proposed transformation in greater detail. […] To assess the viability of these probes for the detection of nitroreductase activity, we first validated the probes in a cell free system using purified E. coli nitroreductase. […] After a short time, during which no fluorescence was observed, the nitroreductase was added (1 μg mL^−1) and the development of fluorescence was monitored as a function of time (FIGS. 6b, 6c). […]

E. coli nitroreductase, sequence (P38489 whole entry): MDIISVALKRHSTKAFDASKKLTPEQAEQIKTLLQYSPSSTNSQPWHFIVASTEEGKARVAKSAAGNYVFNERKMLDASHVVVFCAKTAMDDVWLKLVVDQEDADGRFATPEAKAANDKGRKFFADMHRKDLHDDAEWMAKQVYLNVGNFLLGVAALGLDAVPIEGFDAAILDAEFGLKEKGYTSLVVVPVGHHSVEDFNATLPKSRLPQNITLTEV
DT diaphorase, sequence (P15559 whole entry, species assumed): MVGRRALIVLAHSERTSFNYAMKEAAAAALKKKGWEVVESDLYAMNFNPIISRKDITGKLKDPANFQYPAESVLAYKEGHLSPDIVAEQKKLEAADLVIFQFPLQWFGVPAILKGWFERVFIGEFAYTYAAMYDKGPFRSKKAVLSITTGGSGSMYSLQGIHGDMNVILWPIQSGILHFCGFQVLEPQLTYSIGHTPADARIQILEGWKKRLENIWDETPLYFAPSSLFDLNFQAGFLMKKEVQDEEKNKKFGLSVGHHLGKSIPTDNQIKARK

CCCCCC[C@H]1C(=O)O[C@H](C)[C@H](NC(=O)c2cccc(NC=O)c2OCc2ccccc2)C(=O)O[C@@H](C)[C@@H]1OC(=O)CC(C)C [Compound 4b, 2-O-Benzyl-AMA]
release of AMA (appearance of AMA fluorescence, λem ~425 nm) in live A549 cells [1]: no significant release of AMA; also recorded: not to a significant extent
NADH oxidase inhibitory activity (qualitative comparison) [2]: much weaker activity

CCCCCC[C@H]1C(=O)O[C@H](C)[C@H](NC(=O)c2cccc(NC=O)c2OCc2ccc([N+](=O)[O-])cc2)C(=O)O[C@@H](C)[C@@H]1OC(=O)CC(C)C [Compound 4a, 2-O-(p-Nitrobenzyl)AMA]
release of AMA (appearance of AMA fluorescence, λem ~425 nm) in live A549 cells [1]: AMA was released from 4a
localization of AMA fluorescence relative to mitochondria in A549 cells [1]: Free AMA appeared exclusively in the mitochondria; also recorded: localized to the mitochondria
cytotoxicity toward A549 cancer cells (qualitative comparison) [3]: much more cytoxic toward A549 cancer cells than 4b; also recorded: considerably more cytotoxic than exogenously added AMA
NADH oxidase inhibitory activity (qualitative comparison) [2]: much weaker activity

CCCCCC[C@H]1C(=O)O[C@H](C)[C@H](NC(=O)c2cccc(NC=O)c2O)C(=O)O[C@@H](C)[C@@H]1OC(=O)CC(C)C [AMA, antimycin A, reference compound]
localization of AMA fluorescence relative to mitochondria in A549 cells [1]: did not fully colocalize with mitochondria
quantum yield of the released AMA [4]: ~0.06
inhibition of NADH oxidase ([2]; 50 nM concentration): essentially completely
NADH oxidase inhibitory activity (qualitative comparison) [2]: potent inhibitor

CC[N+]1=C(/C=C/c2ccc(OCc3ccc([N+](=O)[O-])cc3)c(/C=C/C3=[N+](CC)c4ccccc4C3(C)C)c2)C(C)(C)c2ccccc21 [probe 2c]
colocalization of probe fluorescence with MitoTracker Green (mitochondria) ([5]; 10 μM 2c, 100 nM MitoTracker Green FM, DAPI): colocalized to mitochondria; also recorded: complete overlap of the red and green signals
red fluorescence signal (release of QCy7 dye 3) in live A549 cells ([5]; 10 μM probe, 4 hours incubation, no hypoxic condition): activation of 2c by mitochondrial nitroreductase; also recorded: appearance of a red signal
concentration dependence of the signal in A549 cells ([5]; different times and concentrations, FIG. 16): concentration dependent
rate of activation by E. coli nitroreductase, compared between probes ([6]; 10 μM probe, PBS pH 7.4, 0.5 mM NADH, NTR 1 μg mL^-1): much faster than the activation of 2a
development of fluorescence (activation) after addition of E. coli nitroreductase ([6]; 10 μM probe, PBS pH 7.4, 0.5 mM NADH, NTR 1 μg mL^-1, excitation 572 nm, emission 703 nm, 25° C.): good activation
dependence of fluorescence / activation on probe concentration ([6]; PBS 25° C., 0.5 mM NADH, E. coli NTR 1 μg mL^-1): linear correlation between fluorescence intensity and probe concentration; also recorded: increased with increasing substrate concentration
activation by DT diaphorase versus nitroreductase, with or without NADH [7]: significant activation occurred only in the presence of the nitroreductase+NADH
